In ChEMBL document CHEMBL3352519, “Discovery of a novel pyrazole series of group X secreted phospholipase A2 inhibitor (sPLA2X) via fragment based virtual screening” (Bioorg Med Chem Lett, 2014):

How the values were obtained:
[1] = biological target: T1, Group 10 secretory phospholipase A2 (Homo sapiens, UniProt O15496); assay: Binding affinity to sPLA2X (unknown origin)
T1 sequence (O15496 whole entry): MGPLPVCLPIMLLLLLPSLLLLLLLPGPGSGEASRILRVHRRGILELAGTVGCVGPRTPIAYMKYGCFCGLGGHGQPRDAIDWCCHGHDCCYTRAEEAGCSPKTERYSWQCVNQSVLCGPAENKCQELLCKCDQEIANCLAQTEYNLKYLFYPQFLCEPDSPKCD

[2] = biological target: T2, Group 10 secretory phospholipase A2 (Homo sapiens) (UniProt O15496); assay: (§1) Binding affinity to sPLA2X (unknown origin) by NMR spectroscopy based displacement assay; details: concentration not given here
T2 sequence (whole entry): T1 sequence (O15496 whole entry)

[3] = biological target: T1, Group 10 secretory phospholipase A2; assay: as §1
[4] = biological target: T1, Group 10 secretory phospholipase A2; assay: Inhibition of human sPLA2X using 1,2-bis(heptanoylthio) glycerophosphocholine substrate incubated for 30 mins

Question: Which IC50 [1] does the source give for `COc1ccc2c(C(O)C(N)=O)c(C)n(Cc3ccccc3)c2c1` (stereo not given) here?
Answer: Its IC50 is 250000 nM.

Question: Which inhibition [2] does the source give for `O=C(O)c1ccc(-n2ncc3ccccc3c2=O)cc1` here?
Answer: The inhibition was 76%.

Question: What about the IC50 [3] of the same molecule?
Answer: Its IC50 is 50000 nM.

Question: How did the IC50 [4] turn out when `Cc1cc(-c2cc(C(N)=O)nn2C)c(C)s1` was run?
Answer: The IC50 was 851 nM.

Question: Which results are given for `Oc1nc(-c2ccccc2)c(-c2ccccc2)[nH]1`?
Answer: inhibition [2]: 88%; IC50 [3]: 45000 nM

Question: Which IC50 [4] does the source give for `Cc1sc(-c2ccccc2)cc1-c1cc(C(N)=O)n[nH]1` here?
Answer: Its IC50 is 347 nM.

Question: `NC(=O)c1cc(-c2ccccc2Cl)[nH]n1` was tested. Which IC50 [4] did it give?
Answer: Its IC50 is 9330 nM.

Question: How did the IC50 [4] turn out when `Cc1ccccc1-c1cc(C(N)=O)n[nH]1` was run?
Answer: Its IC50 is 2750 nM.

Question: For `Cc1sc(-c2ccccc2)cc1-c1cc(C(N)=O)nn1C`, which IC50 [4] is on record?
Answer: Its IC50 is 1200 nM.

Question: With `Cc1sc2ccccc2c1-c1cc(C(N)=O)nn1C` as the molecule, how does the IC50 [4] read?
Answer: Its IC50 is 851 nM.

Question: With `NC(=O)c1cc(-c2cc(Cl)sc2Cl)[nH]n1` as the molecule, how does the IC50 [4] read?
Answer: The IC50 was 398 nM.

Question: Which IC50 [4] does the source give for `Cc1sc(C(C)C)cc1-c1cc(C(N)=O)n[nH]1` here?
Answer: Its IC50 is less than 51.3 nM.

Question: Which IC50 [4] does the source give for `Cc1sccc1-c1cc(C(N)=O)n[nH]1` here?
Answer: The IC50 was 631 nM.

Question: `Cc1cc(-c2cc(C(N)=O)n[nH]2)c(C)s1` was tested. Which inhibition [2] did it give?
Answer: The inhibition was 57%.

Question: What about the IC50 [3] of the same molecule?
Answer: The IC50 was 20000 nM.

Question: What about the IC50 [4] of the same molecule?
Answer: The IC50 was 316 nM.

Question: For `Cc1sc2ccccc2c1-c1cc(C(N)=O)n[nH]1`, which IC50 [4] is on record?
Answer: Its IC50 is 174 nM.

Question: With `O=C(O)c1csc(-c2ccc3c(c2)CCO3)n1` as the molecule, how does the inhibition [2] read?
Answer: The inhibition was 80%.

Question: What about the IC50 [3] of the same molecule?
Answer: The IC50 was 70000 nM.
